Broadly, the EC50 is the concentration giving half of the maximal effect. Low values mean an effect from little substance, high ones a need for much substance.

For this experiment, the target named is Hydroxycarboxylic acid receptor 2 (Homo sapiens, UniProt Q8TDS4). In words: Agonist activity at human HM74A transfected in CHO-K1 cells for 4 hrs by [35S]-GTPgammaS binding assay. In kind it is functional, cell-based.
Chain of Hydroxycarboxylic acid receptor 2 (Q8TDS4 whole entry): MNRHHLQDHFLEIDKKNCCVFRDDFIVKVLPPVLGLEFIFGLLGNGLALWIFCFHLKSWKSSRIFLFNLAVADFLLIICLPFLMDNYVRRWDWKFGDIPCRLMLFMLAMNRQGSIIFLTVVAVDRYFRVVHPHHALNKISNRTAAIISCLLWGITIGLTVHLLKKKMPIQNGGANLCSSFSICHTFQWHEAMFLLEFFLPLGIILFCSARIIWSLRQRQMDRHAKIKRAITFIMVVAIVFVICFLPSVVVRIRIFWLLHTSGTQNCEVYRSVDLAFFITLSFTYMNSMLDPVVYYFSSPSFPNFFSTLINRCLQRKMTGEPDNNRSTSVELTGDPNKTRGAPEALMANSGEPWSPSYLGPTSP
With `N#CCn1c(=O)c2[nH]c(Cl)nc2n(CC#N)c1=O`, the EC50 is less than 12.6 µM and the Efficacy is more than 30%.

In turn, `CC(C)(C#N)CCCCn1c(=O)[nH]c(=O)c2[nH]c(Cl)nc21` gave an EC50 of less than 12.6 µM and an Efficacy of more than 30%.

With `O=c1[nH]c(=O)n(CCCCCF)c2nc(Cl)[nH]c12`, the EC50 is less than 12.6 µM and the Efficacy is more than 30%.

For `O=c1[nH]c(=O)n(CCCCF)c2nc(Cl)[nH]c12`, the EC50 is less than 12.6 µM and the Efficacy was more than 30%.

Turning to `CCCCCn1c(=O)n(C)c(=O)c2[nH]c(Br)nc21`, the EC50 is less than 12.6 µM and the Efficacy was more than 30%.

In turn, `O=c1[nH]c(=O)n(CC(F)(F)F)c2nc(Cl)[nH]c12` gave an EC50 of less than 12.6 µM and an Efficacy of more than 30%.

For the compound `CCCC(C)Cn1c(=O)[nH]c(=O)c2[nH]c(Cl)nc21` (racemic), the EC50 was less than 12.6 µM and the Efficacy is more than 30%.

The compound `CCn1c(=O)n(C)c(=O)c2[nH]c(Cl)nc21` gave an EC50 of less than 12.6 µM and an Efficacy of more than 30%.

In the case of `O=c1[nH]c(=O)n(CCC2CCCC2)c2nc(Cl)[nH]c12`, the EC50 is less than 12.6 µM and the Efficacy was more than 30%.

Regarding `CCCn1c(=O)n(C)c(=O)c2[nH]c(Cl)nc21`, the EC50 was less than 12.6 µM and the Efficacy was more than 30%.

The compound `CCC(C)CCn1c(=O)[nH]c(=O)c2[nH]c(Cl)nc21` (racemic) had an EC50 of less than 12.6 µM and an Efficacy of more than 30%.

`CCCCn1c(=O)c2[nH]c(C#N)nc2n(CCCC)c1=O` showed an EC50 of less than 12.6 µM and an Efficacy of more than 30%.

`CCCCn1c(=O)[nH]c(=O)c2[nH]c(Cl)nc21` had an EC50 of less than 12.6 µM and an Efficacy of more than 30%.

`O=c1c2[nH]c(Cl)nc2n(CC(F)(F)F)c(=O)n1CCCC(F)(F)F` showed an EC50 of less than 12.6 µM and an Efficacy of more than 30%.

`CC(C)CCCCCn1c(=O)[nH]c(=O)c2[nH]c(Cl)nc21`: the EC50 is less than 12.6 µM and the Efficacy was more than 30%.

In turn, `CCCn1c(=O)n(CC#N)c(=O)c2[nH]c(Cl)nc21` had an EC50 of less than 12.6 µM and an Efficacy of more than 30%.

Take `O=c1[nH]c(=O)n(CCC(F)(F)F)c2nc(Cl)[nH]c12`: the EC50 was less than 12.6 µM and the Efficacy is more than 30%.

For the compound `CCCCn1c(=O)c2[nH]c(I)nc2n(CCCC)c1=O`, the EC50 is less than 12.6 µM and the Efficacy is more than 30%.

In the case of `O=c1[nH]c(=O)n(CC2CC2)c2nc(Cl)[nH]c12`, the EC50 is less than 12.6 µM and the Efficacy is more than 30%.

Compound `CCCCCCCCn1c(=O)[nH]c(=O)c2[nH]c(Cl)nc21` gave an EC50 of less than 12.6 µM and an Efficacy of more than 30%.

For the compound `CC(C)CCn1c(=O)[nH]c(=O)c2[nH]c(Cl)nc21`, the EC50 was less than 12.6 µM and the Efficacy was more than 30%.

For `CCCCCCn1c(=O)[nH]c(=O)c2[nH]c(Cl)nc21`, the EC50 is less than 12.6 µM and the Efficacy is more than 30%.

Compound `O=c1[nH]c(=O)n(CCCC(F)(F)F)c2nc(Cl)[nH]c12` showed an EC50 of less than 12.6 µM and an Efficacy of more than 30%.

Compound `CC(C)CCCn1c(=O)[nH]c(=O)c2[nH]c(Cl)nc21` showed an EC50 of less than 12.6 µM and an Efficacy of more than 30%.

In the case of `O=c1[nH]c(=O)n(CCC2CCCCC2)c2nc(Cl)[nH]c12`, the EC50 is less than 12.6 µM and the Efficacy is more than 30%.

On to `CCCCCn1c(=O)n(C)c(=O)c2[nH]c(Cl)nc21`, for which the EC50 was less than 12.6 µM and the Efficacy was more than 30%.

As to `CCCCCn1c(=O)n(C)c(=O)c2[nH]c(C#N)nc21`, the EC50 was less than 12.6 µM and the Efficacy is more than 30%.

`CCCCn1c(=O)n(C)c(=O)c2[nH]c(C#N)nc21`: the EC50 was less than 12.6 µM and the Efficacy is more than 30%.

With `O=c1[nH]c(=O)n(CC2CCC2)c2nc(Cl)[nH]c12`, the half-maximal effective concentration (EC50) was less than 12.6 µM and the Efficacy was more than 30%.

Consider `O=c1c2[nH]c(Cl)nc2n(CCCC(F)(F)F)c(=O)n1CCCC(F)(F)F`, for which the EC50 was less than 12.6 µM and the Efficacy was more than 30%.

As for `CCCCCCCCCCn1c(=O)[nH]c(=O)c2[nH]c(Cl)nc21`, the EC50 was less than 12.6 µM and the Efficacy was more than 30%.

`O=c1[nH]c(=O)n(CCCCCCF)c2nc(Cl)[nH]c12` gave an EC50 of less than 12.6 µM and an Efficacy of more than 30%.

In the case of `O=c1[nH]c(=O)n(CCCF)c2nc(Cl)[nH]c12`, the EC50 is less than 12.6 µM and the Efficacy is more than 30%.

`O=c1[nH]c(=O)n(CC2CCCC2)c2nc(Cl)[nH]c12` gave an EC50 of less than 12.6 µM and an Efficacy of more than 30%.

`Cn1c(=O)c2[nH]c(Cl)nc2n(CCCC#N)c1=O` had an EC50 of less than 12.6 µM and an Efficacy of more than 30%.

For the compound `CCCn1c(=O)[nH]c(=O)c2[nH]c(Cl)nc21`, the EC50 is less than 12.6 µM and the Efficacy was more than 30%.

For the compound `CCCCn1c(=O)n(CC)c(=O)c2[nH]c(Cl)nc21`, the EC50 was less than 12.6 µM and the Efficacy is more than 30%.

`CCn1c(=O)c2[nH]c(Cl)nc2n(CC(F)(F)F)c1=O`: the EC50 is less than 12.6 µM and the Efficacy is more than 30%.

In turn, `CCCCn1c(=O)n(C)c(=O)c2[nH]c(Cl)nc21` returned an Efficacy of more than 30%.

Turning to `O=c1[nH]c(=O)n(CCCC2CC2)c2nc(Cl)[nH]c12`, the EC50 is less than 12.6 µM and the Efficacy was more than 30%.

Turning to `N#CCn1c(=O)c2[nH]c(Cl)nc2n(CCC2CC2)c1=O`, the EC50 is less than 12.6 µM and the Efficacy is more than 30%.

As to `CCCCCCn1c(=O)n(C)c(=O)c2[nH]c(Cl)nc21`, the EC50 was less than 12.6 µM and the Efficacy was more than 30%.

The compound `O=c1[nH]c(=O)n(CCC2CC2)c2nc(Cl)[nH]c12` showed an EC50 of less than 12.6 µM and an Efficacy of more than 30%.

`CCC(C)Cn1c(=O)[nH]c(=O)c2[nH]c(Cl)nc21` (racemic) showed an EC50 of less than 12.6 µM and an Efficacy of more than 30%.

Regarding `O=c1[nH]c(=O)n(CCC2CCC2)c2nc(Cl)[nH]c12`, the EC50 is less than 12.6 µM and the Efficacy is more than 30%.

Turning to `C=CCCCn1c(=O)[nH]c(=O)c2[nH]c(Cl)nc21`, the EC50 was less than 12.6 µM and the Efficacy is more than 30%.

In turn, `N#CCCCn1c(=O)[nH]c(=O)c2[nH]c(Cl)nc21` showed an EC50 of less than 12.6 µM and an Efficacy of more than 30%.

The compound `O=c1[nH]c(=O)n(CC2CCCCC2)c2nc(Cl)[nH]c12` had an EC50 of less than 12.6 µM and an Efficacy of more than 30%.

Turning to `CCCCn1c(=O)n(CC#N)c(=O)c2[nH]c(Cl)nc21`, the EC50 is less than 12.6 µM and the Efficacy was more than 30%.

As for `CCCCCn1c(=O)[nH]c(=O)c2[nH]c(Cl)nc21`, the EC50 was less than 12.6 µM and the Efficacy was more than 30%.

The compound `N#CCn1c(=O)[nH]c(=O)c2[nH]c(Cl)nc21` gave an EC50 of less than 12.6 µM and an Efficacy of more than 30%.

Consider `CCCn1c(=O)c2[nH]c(Cl)nc2n(CC(F)(F)F)c1=O`, for which the EC50 was less than 12.6 µM and the Efficacy was more than 30%.

For the compound `Cn1c(=O)c2[nH]c(Cl)nc2n(CCCC(F)(F)F)c1=O`, the EC50 is less than 12.6 µM and the Efficacy was more than 30%.

In turn, `C=CCCn1c(=O)[nH]c(=O)c2[nH]c(Cl)nc21` showed a 50% effective concentration (EC50) of less than 12.6 µM and an Efficacy of more than 30%.
